We go through six compounds from PubChem BioAssay AID1259407 (Chemical Carcinogenesis Research Information System (CCRIS), 2018).

The series relates to CCRIS mutagenicity, Ames/micronucleus/aberration tests. In words: CCRIS mutagenicity studies. The note with it: Test System: AMES SALMONELLA TYPHIMURIUM
The mark [1] stands for this setting: Strain/Indicator: TA100, Metabolic Activation: NONE, Method: STANDARD PLATE.
Where [2] appears, read: Strain/Indicator: TA98, Metabolic Activation: NONE, Method: STANDARD PLATE.

The source made the active and inactive calls. How the calls were made is not given here.

Regarding `Cc1ccc2c(ccc3cc4ccccc4cc32)c1`, the mutagenic call is, setting by setting: (Strain/Indicator: TA100, Metabolic Activation: RAT, INTACT HEPATOCYTES, AROCLOR 1254, Method: PREINCUBATION) “inactive; negative”; (Strain/Indicator: TA100, Metabolic Activation: RAT, NADPH-FORTIFIED HOMOGENIZED HEPATOCYTES, AROCLOR 1254, Method: PREINCUBATION) “active; positive”; (Strain/Indicator: TA100, Metabolic Activation: RAT, SONICATED HEPATOCYTES, AROCLOR 1254, Method: PREINCUBATION) “active; positive”.

As to `O=CNc1ccc(Oc2ccc(Cl)cc2)cc1`, the mutagenic call is, setting by setting: under setting [1], “inactive; negative”; (Strain/Indicator: TA100, Metabolic Activation: RAT, LIVER, S-9, KANECLOR 500, Method: STANDARD PLATE) “active; positive”.

On to `Nc1cc(S(=O)(=O)O)cc2cc(S(=O)(=O)O)c(N=Nc3ccccc3)c(O)c12`, for which the mutagenic call reads like this: under setting [2], “inactive; negative”; (Strain/Indicator: TA98, Metabolic Activation: RAT LIVER S-9, AROCLOR 1254, Method: STANDARD PLATE) “inactive; negative”; under setting [1], “inactive; negative”; (Strain/Indicator: TA100, Metabolic Activation: RAT LIVER S-9, AROCLOR 1254, Method: STANDARD PLATE) “inactive; negative”.

As to `O=[N+]([O-])c1ccc2c(c1)cc([N+](=O)[O-])c1ccccc12`, the mutagenic call by setting is: (Strain/Indicator: TA98(1,8-DNP6), Metabolic Activation: NONE, Method: STANDARD PLATE) “active; positive”; (Strain/Indicator: TA98(NR), Metabolic Activation: NONE, Method: STANDARD PLATE) “active; positive”; under setting [2], “active; positive”; under setting [1], “active; positive”; (Strain/Indicator: YG1021, Metabolic Activation: NONE, Method: STANDARD PLATE) “active; positive”; (Strain/Indicator: YG1024, Metabolic Activation: NONE, Method: STANDARD PLATE) “active; positive”. For the same compound, the mutagenic call (Strain/Indicator: YG1026, Metabolic Activation: NONE, Method: STANDARD PLATE) was “active; positive” and the mutagenic call (Strain/Indicator: YG1029, Metabolic Activation: NONE, Method: STANDARD PLATE) is “active; positive”.

With `S=c1[nH]c2ccccc2[nH]1`, the mutagenic call is “inactive; negative” (Strain/Indicator: TA97, Metabolic Activation: HAMSTER, LIVER, S-9, AROCLOR 1254 (10%), Method: PREINCUBATION); “inactive; negative” (Strain/Indicator: TA97, Metabolic Activation: HAMSTER, LIVER, S-9, AROCLOR 1254 (30%), Method: PREINCUBATION); “inactive; negative” (Strain/Indicator: TA97, Metabolic Activation: NONE, Method: PREINCUBATION); “inactive; negative” (Strain/Indicator: TA97, Metabolic Activation: RAT, LIVER, S-9, AROCLOR 1254 (10%), Method: PREINCUBATION); “inactive; negative” (Strain/Indicator: TA97, Metabolic Activation: RAT, LIVER, S-9, AROCLOR 1254 (30%), Method: PREINCUBATION); “inactive; negative” (Strain/Indicator: TA98, Metabolic Activation: HAMSTER, LIVER, S-9, AROCLOR 1254 (10%), Method: PREINCUBATION). Moreover, the mutagenic call by setting is: (Strain/Indicator: TA98, Metabolic Activation: HAMSTER, LIVER, S-9, AROCLOR 1254 (30%), Method: PREINCUBATION) “inactive; negative”; (Strain/Indicator: TA98, Metabolic Activation: NONE, Method: PREINCUBATION) “inactive; negative”; (Strain/Indicator: TA98, Metabolic Activation: RAT, LIVER, S-9, AROCLOR 1254 (10%), Method: PREINCUBATION) “inactive; negative”; (Strain/Indicator: TA98, Metabolic Activation: RAT, LIVER, S-9, AROCLOR 1254 (30%), Method: PREINCUBATION) “inactive; negative”; (Strain/Indicator: TA100, Metabolic Activation: HAMSTER, LIVER, S-9, AROCLOR 1254 (10%), Method: PREINCUBATION) “inactive; negative”; (Strain/Indicator: TA100, Metabolic Activation: HAMSTER, LIVER, S-9, AROCLOR 1254 (30%), Method: PREINCUBATION) “inactive; negative”. Moreover, the mutagenic call reads like this: (Strain/Indicator: TA100, Metabolic Activation: NONE, Method: PREINCUBATION) “inactive; negative”; (Strain/Indicator: TA100, Metabolic Activation: RAT, LIVER, S-9, AROCLOR 1254 (10%), Method: PREINCUBATION) “inactive; negative”; (Strain/Indicator: TA100, Metabolic Activation: RAT, LIVER, S-9, AROCLOR 1254 (30%), Method: PREINCUBATION) “inactive; negative”; (Strain/Indicator: TA1535, Metabolic Activation: HAMSTER, LIVER, S-9, AROCLOR 1254 (10 OR 30%), Method: PREINCUBATION) “inactive; negative”; (Strain/Indicator: TA1535, Metabolic Activation: NONE, Method: PREINCUBATION) “inactive; negative”; (Strain/Indicator: TA1535, Metabolic Activation: RAT, LIVER, S-9, AROCLOR 1254 (10 OR 30%), Method: PREINCUBATION) “inactive; negative”.

As for `COc1nsc2c(N)cccc12`, the mutagenic call (Strain/Indicator: TA98, Metabolic Activation: S-9, Method: STANDARD PLATE) is “active; positive”.
